Experimental data as given in article PMC10045904, “Polyphenol Profile of Cistus × incanus L. and Its Relevance to Antioxidant Effect and α-Glucosidase Inhibition” (Antioxidants, 2023).
Converted amounts (≈) assume the structure as drawn. “And” between values parts separate entries of the source, which are not always exact repeats. Identical values can stand only once. Like-named read-outs stand apart in the source and are kept apart here.

Tests used:
[1] = biological target: T1, α-glucosidase from Saccharomyces cerevisiae (Saccharomyces cerevisiae, UniProt P53341); test: α-glucosidase inhibitory assay (p-NPG, 96-well microplate); type: biochemical; conditions: pure compound at 500 µg/mL, triplicate
T1 construct: purchased Sigma-Aldrich (Germany)
T1 sequence (P53341 whole entry): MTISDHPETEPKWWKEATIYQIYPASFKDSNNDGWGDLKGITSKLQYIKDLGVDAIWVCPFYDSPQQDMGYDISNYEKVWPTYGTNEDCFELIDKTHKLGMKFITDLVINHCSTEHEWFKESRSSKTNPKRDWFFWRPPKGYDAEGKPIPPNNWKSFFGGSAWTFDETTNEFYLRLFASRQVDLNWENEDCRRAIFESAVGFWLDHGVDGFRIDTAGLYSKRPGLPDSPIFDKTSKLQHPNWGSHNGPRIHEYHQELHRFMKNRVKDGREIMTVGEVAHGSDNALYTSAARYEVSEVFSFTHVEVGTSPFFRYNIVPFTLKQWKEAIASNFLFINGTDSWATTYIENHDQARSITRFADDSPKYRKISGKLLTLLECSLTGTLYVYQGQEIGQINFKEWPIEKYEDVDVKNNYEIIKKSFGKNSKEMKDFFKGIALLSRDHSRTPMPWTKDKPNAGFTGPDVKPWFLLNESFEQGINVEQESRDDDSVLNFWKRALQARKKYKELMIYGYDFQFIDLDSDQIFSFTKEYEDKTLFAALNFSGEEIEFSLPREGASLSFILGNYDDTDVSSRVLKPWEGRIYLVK
Description: Spectrophotometric measurements were conducted using a Multiskan GO Spectrophotometer (Thermo-Fisher Scientific). The %Inhibition was calculated from the formula % inhibition=(AControl− ASample/AControl )×100
The α-glucosidase inhibitory activity was conducted in a 96-well microplate using 4-nitrophenyl-α-D-glucopyranoside (p-NPG), as reported previously. […] […] The microplate with samples and enzyme solution was initially incubated for 5 min at 37 °C. […] The reaction was allowed to run for 10 min and afterward stopped by adding 50 µL of 0.1 M Na2CO3. The absorbance was measured at 405 nm. All of the samples were tested in triplicate.
(§1) The readings were reduced by absorbance of the sample blanks measured separately for each extract/polyphenol, which consisted of 50 µL of extract diluted in 150 µL of buffer solution only, while values obtained for uninhibited controls were reduced by absorbance values of the buffer solution (buffer blank). The activity was expressed as %inhibition. The half-maximal inhibitory concentration (IC50) values, defined as concentration of inhibitor necessary to reduce the rate of an enzymatic process by 50%, were calculated as follows: IC50=sample concentration ×50/% inhibition

[2] = biological target: T1, α-glucosidase from Saccharomyces cerevisiae; test: Kinetics of α-glucosidase inhibition (Lineweaver–Burk, varying inhibitor and p-NPG concentrations); type: biochemical; conditions: for Inhibition Type (mode of α-glucosidase inhibition): Lineweaver–Burk plots, p-NPG 1–20 mM, enzyme 0.25 U/mL
Description: as §1, with “×50/% inhibition […]” for “×50/% inhibition”
Inhibition modes of α-glucosidase were determined according to Chu et al.. […] After 5 min of preincubation, the addition of the substrate started the reaction, and the changes in absorbance were measured at 30 s intervals. The uninhibited reaction was also run. The reaction was terminated after 10 min, and the absorbance values obtained in the kinetic study were used to create Lineweaver–Burk plots of 1/v against 1/[S].
S3. Ability of α‐glucosidase inhibition by C. incanus
Figure S1. Inhibition of α‐glucosidase by C. incanus extracts at different concentrations.
The absorbance values have been used to determine the changes in Michaelis con‐ stant (Km) and maximum velocity of reaction (Vmax). At first, the change in absorbance over time was converted to absorbance units per minute and then expressed as micromoles of chromogenic product (p‐Np) liberated in the enzymatic reaction in order to determine reaction velocity. The molar extinction coefficient of p‐NP used in the calculation was de‐ termined from its standard curve. The reciprocal of reaction velocity values of each tested compound and extract at different substrate concentrations were then plotted against the reciprocal of substrate concentrations. The intercepts of the created trendlines were uti‐ lized to calculate Km and Vmax values of each enzymatic reaction, and evaluation of altera‐

[3] = parameters: method as in PMID 35458630, PMID 36673365; conditions: after consumption of ellagitannin-rich foods; cited from earlier work
[4] = read-out: IC50 [µM] α-glucosidase
[5] = read-out: IC50 [µg/mL] α-glucosidase (converted)

Row | Compound | inhibition at 500 µg/mL [1] | α-glucosidase %inhibition [1] | Inhibition Type (mode of α-glucosidase inhibition) [2] | IC50 [2, 4] | IC50 [2, 5] | IC50 [µg/mL] α-glucosidase [2] | IC50 ([2]; listed as cistusin, read-out: IC50 [µM] α-glucosidase) | absorption into the bloodstream [3]
1 | O=c1oc2c(O)c(O)cc3c(=O)oc4c(O)c(O)cc1c4c23 [Ellagic acid, ellagic acid] | > 70% | 81.9% | mixed | 11 µM and 10.8 µM | 10.8 µM | – | – | –
2 | Cistusin | – | > 70% | mixed | 0.66 µM | – | 0.83 µg/mL | 0.7 µM | –
3 | O=c1c(O[C@@H]2O[C@H](CO)[C@H](O)[C@H](O)[C@H]2O)c(-c2ccc(O)c(O)c2)oc2cc(O)cc(O)c12 [hyperoside, quercetin-3-O-β-galactoside] | 26% | – | – | – | – | – | – | –
4 | O=C1O[C@H]2[C@@H]3OC(=O)c4cc(O)c(O)c(O)c4-c4c(O)c(O)c5oc(=O)c6c(c(O)c(O)c7oc(=O)c4c5c76)-c4c(cc(O)c(O)c4O)C(=O)OC[C@H]3OC(O)[C@@H]2OC(=O)c2cc(O)c(O)c(O)c2-c2c1cc(O)c(O)c2O (mixture of isomers) [Punicalagin, punicalagin] | > 70% | – | competitive | 1.1 µM and 1.14 µM | 1.13 µM | – | – | not absorbed into the bloodstream
5 | O=C(/C=C/c1ccc(O)cc1)OC[C@H]1O[C@@H](Oc2c(-c3ccc(O)cc3)oc3cc(O)cc(O)c3c2=O)[C@H](O)[C@@H](O)[C@@H]1O [Tiliroside, kaempferol-3-O-β-(6″-O-p-coumaroyl)glucoside] | > 70% | 73.6% | mixed | 283 µM | 283 µM | – | – | –
6 | O=c1c(O)c(-c2ccc(O)c(O)c2)oc2cc(O)cc(O)c12 [quercetin] | 30 to 40% | – | – | – | – | – | – | –
7 | O=C(O)c1cc(O)c(O)c(O)c1 [Gallic acid, gallic acid] | > 70% | 82.8% | mixed | 686 µM | 688 µM and 686 µM | – | – | –
8 | O=C(OC[C@H]1OC(O)[C@@H]2OC(=O)c3cc(O)c(O)c(O)c3-c3c(cc(O)c(O)c3O)C(=O)O[C@H]2[C@@H]1OC(=O)c1cc(O)c(O)c(O)c1-c1c(O)c(O)c2oc(=O)c3cc(O)c(O)c4oc(=O)c1c2c43)c1cc(O)c(O)c(O)c1 (some centres unmarked) [Terflavin A, terflavin A] | – | > 70% | mixed | 1.1 µM | – | 1.19 µg/mL (≈ 1.1 µM) | – | –
9 | O=c1c(O)c(-c2ccc(O)cc2)oc2cc(O)cc(O)c12 [kaempferol] | 17.6% | – | – | – | – | – | – | –
10 | C[C@H]1O[C@H](O[C@H]2[C@H](O)[C@@H](O)[C@@H](O[C@H]3[C@H](O)[C@@H](O)C(O)O[C@@H]3CO)O[C@@H]2CO)[C@H](O)[C@@H](O)[C@@H]1N[C@H]1C=C(CO)[C@@H](O)[C@H](O)[C@H]1O (some centres unmarked) [Acarbose, acarbose, reference compound] | 13.7% | – | competitive | – | – | – | – | –
11 | O=C1OC[C@H]2OC(O)[C@H](O)[C@@H](O)[C@@H]2OC(=O)c2cc(O)c(O)c(O)c2-c2c(O)c(O)c3oc(=O)c4c(c(O)c(O)c5oc(=O)c2c3c54)-c2c1cc(O)c(O)c2O (mixture of isomers) [punicalin] | – | – | – | – | – | – | – | not absorbed into the bloodstream
